The supplement of paper PMC10307832

Experiments:
Assay in all cases: relative viability (nuclei count vs DMSO), 5 days (fraction); higher = more cells survive
[1] = compound: CC(C)N(CCCNC(=O)Nc1ccc(C(C)(C)C)cc1)C[C@H]1O[C@@H](n2ccc3c(N)ncnc32)[C@H](O)[C@@H]1O + COc1cccc2cc(-c3nc([C@H]4CC[C@H](C(=O)O)CC4)n4ncnc(N)c34)[nH]c12 [OSI-027] (partner 0.5 µM)
Procedure, shortened: (§1)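 Medians of duplicate plates are given as relative viability. That measure is the nuclei count in treated wells divided by the count in vehicle wells. Counts were taken on 4× images of lung cancer cell lines in 1536-well plates, 5 days after pin-tool dosing the day after seeding with one drug alone or a fixed anchor-drug dose plus five library-drug doses (not always all listed) in √10 steps.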

[2] = compound: CC(C)N(CCCNC(=O)Nc1ccc(C(C)(C)C)cc1)C[C@H]1O[C@@H](n2ccc3c(N)ncnc32)[C@H](O)[C@@H]1O + O=C(c1cc(Cc2n[nH]c(=O)c3ccccc23)ccc1F)N1CCN(C(=O)C2CC2)CC1 [Olaparib] (partner 8 µM)
Procedure, shortened: as §1

Shikonin + Foretinib = compound: CC(C)=CC[C@@H](O)C1=CC(=O)c2c(O)ccc(O)c2C1=O [Shikonin] + COc1cc2c(Oc3ccc(NC(=O)C4(C(=O)Nc5ccc(F)cc5)CC4)cc3F)ccnc2cc1OCCCN1CCOCC1 [Foretinib] (partner 0.25 µM)
Procedure, shortened: as §1

Shikonin + Lapatinib = compound: CC(C)=CC[C@@H](O)C1=CC(=O)c2c(O)ccc(O)c2C1=O [Shikonin] + CS(=O)(=O)CCNCc1ccc(-c2ccc3ncnc(Nc4ccc(OCc5cccc(F)c5)c(Cl)c4)c3c2)o1 [Lapatinib] (partner 2 µM)
Procedure, shortened: as §1

| Cell Line | relative viability ([1]; first compound 0.08 µM) | relative viability ([1]; first compound 0.253 µM) | relative viability ([1]; first compound 0.8 µM) | relative viability ([1]; first compound 2.53 µM) | relative viability ([1]; first compound 8 µM) | relative viability ([2]; first compound 0.08 µM) | relative viability ([2]; first compound 0.253 µM) | relative viability ([2]; first compound 2.53 µM) | relative viability ([2]; first compound 8 µM) | relative viability (Shikonin + Foretinib; first compound 0.01 µM) | relative viability (Shikonin + Foretinib; first compound 0.1 µM) | relative viability (Shikonin + Foretinib; first compound 0.3162 µM) | relative viability (Shikonin + Foretinib; first compound 1 µM) | relative viability (Shikonin + Lapatinib; first compound 0.01 µM) | relative viability (Shikonin + Lapatinib; first compound 0.1 µM) | relative viability (Shikonin + Lapatinib; first compound 0.3162 µM) | relative viability (Shikonin + Lapatinib; first compound 1 µM) | relative viability ([2]; first compound 0.8 µM) |
| --- | --- | --- | --- | --- | --- | --- | --- | --- | --- | --- | --- | --- | --- | --- | --- | --- | --- | --- |
| 201T | 0.417 | 0.864 | 0.624 | 0.77 | 0.903 | 0.83 | 0.891 | 0.809 | 0.797 | 1.07 | 1.15 | 1.19 | 1.25 | 1.05 | 1.12 | 1.02 | 1.05 | – |
| A549 | – | – | – | – | – | 0.409 | 0.32 | 0.535 | 0.317 | 1.05 | 1.03 | 1.16 | 1.11 | 1.08 | 1.09 | 1.03 | 1.1 | 0.251 |
| A-427 | 0.439 | 0.492 | 0.535 | 0.502 | 0.478 | 0.71 | 0.779 | 0.771 | 0.702 | 1.16 | 1.26 | 1.21 | 1.16 | 1.05 | 1.37 | 0.967 | 1.14 | 0.613 |
| ABC-1 | 0.497 | 0.588 | – | 0.565 | 0.529 | 0.69 | 0.745 | 1.47 | 0.8 | 1.14 | 0.993 | 0.927 | 1.04 | 1.5 | 1.28 | 1.27 | 1.2 | – |
| BEN | 0.301 | 0.277 | 0.298 | 0.294 | 0.275 | 0.974 | 1.25 | 1.03 | 1.02 | 0.576 | 0.744 | 0.839 | 0.848 | 0.654 | 0.897 | 0.776 | 0.768 | 1.24 |
| CAL-12T | 0.603 | 0.498 | 0.635 | 0.579 | 0.53 | 0.735 | 0.775 | 0.698 | 0.723 | 1.02 | 1.08 | 1.23 | 1.16 | 0.636 | 0.632 | 0.649 | 0.638 | 0.702 |
| COR-L23 | 0.758 | 0.739 | 0.697 | 0.735 | 0.689 | 0.297 | 0.376 | 0.347 | 0.29 | 1.05 | 0.813 | 1.03 | 0.988 | 1.03 | 1.07 | 1.13 | 1.05 | 0.365 |
| COR-L 105 | 0.682 | 0.581 | 0.664 | 0.427 | 0.648 | 0.678 | 0.724 | 0.652 | 0.649 | 1.44 | 1.31 | 1.34 | 1.33 | 0.339 | 0.346 | 0.318 | 0.36 | 0.702 |
| Calu-6 | – | – | – | – | – | 0.521 | 0.53 | 0.552 | 0.57 | 0.962 | 0.904 | 1.02 | 0.885 | 1.16 | 1.34 | 1.11 | 1.16 | 0.547 |
| ChaGo-K-1 | 0.525 | 0.616 | 0.471 | 0.628 | 0.585 | 0.423 | 0.413 | 0.392 | 0.389 | 0.97 | 1.06 | 1.05 | 0.943 | – | – | – | – | 0.431 |
| EBC-1 | – | – | – | – | – | 0.766 | 0.746 | 0.85 | 0.657 | 0.0907 | 0.107 | 0.11 | 0.112 | 0.19 | 0.191 | 0.213 | 0.217 | 0.76 |
| EKVX | 0.718 | 0.713 | 0.71 | 0.704 | 0.668 | 0.818 | 0.83 | 0.803 | 0.752 | 0.751 | 0.646 | 1.05 | 0.762 | 0.18 | 0.202 | 0.214 | 0.19 | 0.67 |
| EMC-BAC-2 | 0.384 | 0.485 | 0.42 | 0.412 | 0.355 | 0.486 | 0.513 | 0.389 | 0.435 | 0.993 | 1.05 | 1.16 | 0.972 | 0.939 | 0.999 | 0.941 | 0.923 | 0.472 |
| EPLC-272H | 0.275 | 0.423 | 0.274 | 0.283 | 0.259 | 0.669 | 0.85 | 0.734 | 0.859 | 0.715 | 0.601 | 0.783 | 0.726 | 0.869 | 1.2 | 1.08 | 1.22 | 0.764 |
| H3255 | 0.564 | 0.614 | 0.685 | 0.543 | 0.538 | 0.552 | 0.562 | 0.598 | 0.517 | 0.851 | 0.876 | 0.869 | 0.856 | 0.206 | 0.258 | 0.215 | 0.271 | 0.555 |
| HARA | 0.454 | 0.536 | 0.621 | 0.568 | 0.375 | 0.844 | 0.737 | 0.538 | 0.494 | 0.936 | 1.13 | 0.865 | 0.883 | 0.888 | 0.903 | 0.853 | 0.77 | 0.764 |
| HCC-15 | 0.641 | 0.815 | 0.6 | 0.812 | 0.655 | 0.669 | 0.754 | 0.758 | 0.709 | 1.05 | 1.02 | 1.12 | 0.986 | 0.945 | 0.996 | 0.918 | 0.919 | 0.702 |
| HCC-44 | 0.507 | 0.509 | 0.432 | 0.572 | 0.552 | 1 | 1.03 | 1 | 0.972 | – | – | – | – | 1.07 | 1.07 | 1.05 | 1.09 | 0.981 |
| HCC-78 | 0.376 | 0.388 | 0.356 | 0.364 | 0.346 | 0.885 | 0.734 | 0.792 | 0.804 | 0.562 | 0.621 | 0.614 | 0.627 | 0.778 | 1.07 | 0.705 | 1.06 | 0.691 |
